From publication PMC10564737, “Structure-based design of a phosphotyrosine-masked covalent ligand targeting the E3 ligase SOCS2” (Nature Communications, 2023)
Several values for one entry are separate records, joined by “and”; a condition that tells them apart may be missing. Equal entries are not always repeated.

Molecular target: T1, HiBiT-SOCS2 fusion in HeLa cells (Homo sapiens, UniProt O14508)
T1 construct: encoding SOCS2 (32–198) in pBiT3.1-N expression vector; expressed in transfected cells; host or cells: HeLa
Experiment: Split-NanoLuc CETSA, live-cell mode
Assay type: cell-based
Design: Produrg CETSA screening, raw signal: reference not given here
Conditions: for Produrg CETSA screening, raw signal: 50uM 20hrs
Description: One of the challenges with small-molecule binders displaying on-target activity with recombinant proteins, is to translate their utility to a cellular context. […] One of the advantages of CETSA is that target engagement can be monitored without the need for the development of a cell-permeable tracer molecule.
We utilized CETSA in a live-cell mode to evaluate the efficacy and rank the different prodrugs. We treated live HeLa cells with 50 μM compound (prodrugs) for 20 h and monitored Tagg shift as a proxy for the combo of prodrug permeability and unmasking (Fig. 4d). […] The observation could be because the POM group unmasking requires only esterase unlike the reliance of compounds 21–23 on esterase and phosphoramidase for unmasking an aryloxy phosphoramidate group.
N-terminal HiBiT-SOCS2 fusion was generated by encoding SOCS2 (32–198) in pBiT3.1-N expression vector (Promega). The transfection and target engagement assay were performed by modifying a NanoLuc target engagement protocol (Promega) with some small modifications. Briefly, HiBiT-SOCS2 fusion construct was transfected into HeLa cells using FuGENE HD (Promega) according to the manufacturer’s protocol. HiBiT-SOCS2 fusion construct was diluted into Transfection Carrier DNA (Promega) at a mass ratio of 1:100 or 1:10 for permeabilised and live-cell CETSA respectively. FuGENE HD was added at a ratio of 1:3 (μg DNA: μL FuGENE HD). 1 part (vol) of FuGENE HD complexes thus formed were combined with 20 parts (vol) of HeLa cells suspended at a density of 2 × 10^5 cells/mL, followed by incubation in a humidified, 37 °C + 5% CO2 incubator. After 20 h of incubation HeLa cells were detached and resuspended at a density of 2.5 × 10^5 cells/mL in Opti-MEM media without serum or phenol red but supplemented with protease inhibitor cocktail (Roche). Compounds stocks were added to cell suspension to maintain a final DMSO concentration of 1%. For the permeabilised assay format, 96-well PCR plates (Thermo) were pre-treated with digitonin to have a final well concentration of 50 μg/ml. 50 μl Opti-MEM cell suspension was then aliquoted to each well of the 96-well plate. The plates are then covered with microporous tape sheet (Qiagen) prior to incubation in a humidified, 37 °C + 5% CO2 incubator. Post-incubation we heat the PCR plates in 16-point temperature (split across two runs) curve spanning degrees 40-72 °C temperature span (CFX96 Touch Real-Time PCR Detection System, BioRad). The thermal cycler block was allowed to rise to the designated temperatures prior to placement of the PCR plates into the heating block and heat treatment for 3 min. After incubating the plates at room temperature for over 3 min, 50 μl of the Nano-Glo HiBiT Lytic mix (Promega) was added to each well. Samples were mixed by pipetting and placing the plate on an orbital shaker (600 rpm) for 5 min. 20 μl of the samples (in triplicates) were transferred to a AlphaPlate-384 plate (Perkin Elmer). Luminescence was recorded with GloMax Discover Microplate Reader (Promega). To generate apparent Tagg curves, the data is first converted to percent stabilized by relating the observed luminescence to the luminescence of the lowest temperature (40 °C) for that given sample. Data are then fitted to obtain apparent Tagg values using the Boltzmann Sigmoid equation using Graphpad Prism 9.

T1 sequence (O14508 32-198): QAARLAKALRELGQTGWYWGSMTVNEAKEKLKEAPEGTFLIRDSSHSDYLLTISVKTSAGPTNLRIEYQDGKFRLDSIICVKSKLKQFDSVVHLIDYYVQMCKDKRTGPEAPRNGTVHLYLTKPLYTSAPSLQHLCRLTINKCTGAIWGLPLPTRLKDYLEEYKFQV
T1 sequence (Q15370 whole entry, further chain, the tested form may be a part): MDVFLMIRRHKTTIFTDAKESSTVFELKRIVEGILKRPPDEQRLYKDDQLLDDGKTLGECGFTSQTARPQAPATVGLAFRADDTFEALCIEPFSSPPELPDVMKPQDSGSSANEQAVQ
T1 sequence (Q15369 whole entry, further chain, the tested form may be a part): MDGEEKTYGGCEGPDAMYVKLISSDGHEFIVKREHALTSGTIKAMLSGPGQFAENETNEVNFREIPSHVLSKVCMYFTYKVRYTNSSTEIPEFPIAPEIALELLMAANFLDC

CC(C)(C)C(=O)OCOP(=O)(OCOC(=O)C(C)(C)C)Oc1ccc(C[C@H](NC(=O)Cc2ccc(F)cc2)C(=O)NCc2cccc(NC(=O)CCl)c2)cc1 [MN714] was tested. Which “Produrg CETSA screening, raw signal” value (n=1, temperature point 4 of 16, temperature not given) did it give?
The value was 54032 and 80376 and 105532.

And the “Produrg CETSA screening, raw signal” value (n=1, temperature point 5 of 16, temperature not given)?
Its value is 90582 and 99338 and 174703.

What about the “Produrg CETSA screening, raw signal” value (n=1, temperature point 6 of 16, temperature not given) of the same compound?
The value was 139751 and 167289 and 205811.

What about the “Produrg CETSA screening, raw signal” value (n=1, temperature point 7 of 16, temperature not given) of the same compound?
Its value is 195985 and 234426 and 281536.

And the “Produrg CETSA screening, raw signal” value (n=1, temperature point 8 of 16, temperature not given)?
Its value is 244882 and 229067 and 241218.

What about the “Produrg CETSA screening, raw signal” value (n=1, temperature point 9 of 16, temperature not given) of the same compound?
The value was 256289 and 277913 and 306068.

What about the “Produrg CETSA screening, raw signal” value (n=1, temperature point 10 of 16, temperature not given) of the same compound?
Its value is 320763 and 321677 and 363535.

And the “Produrg CETSA screening, raw signal” value (n=1, temperature point 11 of 16, temperature not given)?
Its value is 372242 and 395029 and 425781.

And the “Produrg CETSA screening, raw signal” value (n=1, temperature point 12 of 16, temperature not given)?
Its value is 423872 and 436050 and 431053.

And the “Produrg CETSA screening, raw signal” value (n=1, temperature point 13 of 16, temperature not given)?
The value was 366601 and 377426 and 420904.

What about the “Produrg CETSA screening, raw signal” value (n=1, temperature point 14 of 16, temperature not given) of the same compound?
Its value is 362714 and 367767 and 404526.

And the “Produrg CETSA screening, raw signal” value (n=1, temperature point 15 of 16, temperature not given)?
The value was 419874 and 426204 and 438598.

And the “Produrg CETSA screening, raw signal” value (n=1, temperature point 16 of 16, temperature not given)?
Its value is 418575 and 457050 and 469972.

What about the “Produrg CETSA screening, raw signal” value (n=2, temperature point 1 of 16, temperature not given) of the same compound?
Its value is 80745 and 156547 and 107330.

What about the “Produrg CETSA screening, raw signal” value (n=2, temperature point 2 of 16, temperature not given) of the same compound?
Its value is 108259 and 123901 and 132020.

And the “Produrg CETSA screening, raw signal” value (n=2, temperature point 3 of 16, temperature not given)?
The value was 72847 and 107017 and 131297.

What about the “Produrg CETSA screening, raw signal” value (n=2, temperature point 4 of 16, temperature not given) of the same compound?
The value was 98808 and 124869 and 145900.

And the “Produrg CETSA screening, raw signal” value (n=2, temperature point 5 of 16, temperature not given)?
Its value is 73033 and 127162 and 126167.

And the “Produrg CETSA screening, raw signal” value (n=2, temperature point 6 of 16, temperature not given)?
Its value is 163432 and 190209 and 191740.

What about the “Produrg CETSA screening, raw signal” value (n=2, temperature point 7 of 16, temperature not given) of the same compound?
Its value is 242162 and 237309 and 241895.

What about the “Produrg CETSA screening, raw signal” value (n=2, temperature point 8 of 16, temperature not given) of the same compound?
The value was 244528 and 287537 and 296136.

What about the “Produrg CETSA screening, raw signal” value (n=2, temperature point 9 of 16, temperature not given) of the same compound?
The value was 280328 and 320314 and 333974.

And the “Produrg CETSA screening, raw signal” value (n=2, temperature point 10 of 16, temperature not given)?
Its value is 308215 and 329369 and 371393.

And the “Produrg CETSA screening, raw signal” value (n=2, temperature point 11 of 16, temperature not given)?
The value was 342961 and 395565 and 371949.

What about the “Produrg CETSA screening, raw signal” value (n=2, temperature point 12 of 16, temperature not given) of the same compound?
Its value is 424106 and 411160 and 460047.

And the “Produrg CETSA screening, raw signal” value (n=2, temperature point 13 of 16, temperature not given)?
The value was 397001 and 430594 and 470735.

What about the “Produrg CETSA screening, raw signal” value (n=2, temperature point 14 of 16, temperature not given) of the same compound?
Its value is 424646 and 453700 and 455391.

And the “Produrg CETSA screening, raw signal” value (n=2, temperature point 15 of 16, temperature not given)?
The value was 402201 and 445060 and 429166.

And the “Produrg CETSA screening, raw signal” value (n=2, temperature point 16 of 16, temperature not given)?
Its value is 423530 and 445088 and 469114.

And the “Produrg CETSA screening, raw signal” value (n=3, Temp, 0C 62.3)?
Its value is 15991.

What about the “Produrg CETSA screening, raw signal” value (n=3, Temp, 0C 66.1) of the same compound?
The value was 13409 and 15862 and 18690.

And the “Produrg CETSA screening, raw signal” value (n=3, Temp, 0C 69.3)?
The value was 10941 and 16787 and 17374.

What about the “Produrg CETSA screening, raw signal” value (n=3, Temp, 0C 71.1) of the same compound?
The value was 8072 and 11559 and 15104.

And the “Produrg CETSA screening, raw signal” value (n=3, Temp, 0C 72)?
Its value is 10040 and 12206 and 15596.

And the EC50 (2 hours EC50, MN714 dose response CETSA, Mean)?
The EC50 was 3.77 µM.

And the EC50 (2 hours EC50, individual replicates n1-n4, MN714 dose response CETSA, single replicates)?
The EC50 was 2.69 µM and 3.55 µM and 5.05 µM.

What about the EC50 (8 hours EC50, MN714 dose response CETSA, Mean) of the same compound?
The EC50 was 2.52 µM.

What about the EC50 (8 hours EC50, individual replicates n1-n4, MN714 dose response CETSA, single replicates) of the same compound?
Its EC50 is 1.93 µM and 3.11 µM and 0.902 µM and 4.13 µM.

What about the EC50 (EC50, live-cell CETSA, 2 h of treatment) of the same compound?
Its EC50 is 3.8 µM.

And the EC50 (EC50, live-cell CETSA, 8 h of treatment)?
The EC50 was 2.5 µM.

What about the “Tagg shift, live-cell CETSA” value (HeLa cells, 50 μM, 20 h) of the same compound?
Its value is “consistent superior SOCS2 engagement”.

What about the ΔT (Prodrug screen CETSA, live HeLa cells, 50 μM, 20 h, Mean n = 3) of the same compound?
The ΔT was 4.89 oC.

What about the “ΔT, individual replicates n1-n3” value (Prodrug screen CETSA, single replicates) of the same compound?
Its value is 4.83 oC and 5.25 oC and 4.59 oC.
